# In patent US20240254489A1, “COMPOSITIONS AND METHODS OF TARGETING THE PAX6 SIGNALING PATHWAY TO REDUCE FORMATION OF AMYLOID BETA PLAQUES AND NEUROFIBRILLARY TANGLES” (The University of Hong Kong, priority 2021, published 2024):
# Assays:
# 293T-APP cell line = assay: Western blot of CDK4 and Cyclin D1 in 293T-APP cell line; format: cell-based; settings: 10 nM and 50 nM
# Source text: (§1) Experiments were designed to test the effect of palbociclib on Tau in vitro and in vivo.
# [1] = Images of liver, gallbladder and kidney in palbociclib treated mouse; format: in vivo
# Source text: (§2) FIG. 9A-9D show effects of palbociclib on 5×FAD mice model. FIGS. 9A and 9B is a series of immunofluorescent images showing expression of cell cycle marker (Cyclin D1) (9A) and Pax6 (9B). […] FIG. 9D is an image of an autoradiogram of a Western blot and the associated quantitative bar graph showing the relative expression of E2F-1, CDK6, c-Myb, APP, Iba1 and LC3B in palbociclib treatment group compared to controls. FIG. 9E is a series of images of brain tissue showing the relative Aβ deposits in palbociclib treated mouse brain tissue compared to controls. FIG. 9F is a series of images of liver, gallbladder and kidney in palbociclib treated mouse. FIGS. 9G-9J show the effect of palbociclib treatment on learning and memory ability of 5×FAD female mice in morris water maze. FIG. 9G is a schematic diagram of palbociclib administration with 60 mg/(kg*d); 10-month-old wild-type mice (WT) and 5×FAD mice were administrated with solvent (ctrl) and 60 mg/kg/day palbociclib (palb) for 2 months via oral garage; Morris water maze with n(WT-ctrl)=5, n(5×FAD-ctrl)=5, n(5×FAD-palb)=3 were performed.
# FIGS. 9A-9D show effects of palbociclib on 5×FAD mice model. […] FIG. 9D is an image of an autoradiogram of a Western blot and the associated quantitative bar graph showing the relative expression of E2F-1, CDK6, c-Myb, APP, Iba1 and LC3B in palbociclib treatment group compared to controls. […]
# 293T-Tau cell line = assay: Western blot of CDK4 and Cyclin D1 in 293T-Tau cell line; format: cell-based; settings: 10 nM and 50 nM
# Source text: as §1
# 5×FAD mice [2] = assay: Morris water maze of palbociclib-treated 5×FAD mice; format: in vivo, mouse
# Source text: as §2
# FIGS. 9G-9J show the effect of palbociclib treatment on learning and memory ability of 5×FAD female mice in morris water maze. FIG. 9G is a schematic diagram of palbociclib administration with 60 mg/(kg*d); 10-month-old wild-type mice (WT) and 5×FAD mice were administrated with solvent (ctrl) and 60 mg/kg/day palbociclib (palb) for 2 months via oral garage; Morris water maze with n(WT-ctrl)=5, n(5×FAD-ctrl)=5, n(5×FAD-palb)=3 were performed.
# 5×FAD mice [3] = assay: Immunofluorescence, Western blot and Aβ deposits in brain of palbociclib-treated 5×FAD mice; format: in vivo, mouse
# Source text: as §2
# FIGS. 8A-8E show the effects of palbociclib on 5×FAD mice models.
# FIGS. 9A-9D show effects of palbociclib on 5×FAD mice model. FIGS. 9A and 9B is a series of immunofluorescent images showing expression of cell cycle marker (Cyclin D1) (9A) and Pax6 (9B). […] FIG. 9D is an image of an autoradiogram of a Western blot and the associated quantitative bar graph showing the relative expression of E2F-1, CDK6, c-Myb, APP, Iba1 and LC3B in palbociclib treatment group compared to controls. FIG. 9E is a series of images of brain tissue showing the relative […] deposits in palbociclib treated mouse brain tissue compared to controls.
# C/EBPa = settings: cited from earlier work
# Pax6 and c-Myb = assay: RT-PCR and Western blot of amyloid β-induced Pax6 and c-Myb in cortical neurons; format: cell-based, mouse
# Protocol: Human brain tissues or mouse cortical neurons were dissolved in ice-cold 1×RIPA buffer (Cell Signaling) with proteinase inhibitor cocktail (Sigma). Proteins were separated on NuPAGE Novex 4-12% Bis-Tris gels (Thermo Fisher Scientific) and transferred to nitrocellulose membranes. Membranes were probed with indicated primary antibodies. The blots were analysed and quantified by densitometry using ImageJ software (Version 1.52t, National Institutes of Health).
# Total mRNA was prepared from cell cultures utilizing TRIzol reagent (Thermo Fisher Scientific). Semi-quantitative RT-PCR experiments were performed to examine RNA expression of target genes. Briefly, 2 μg of total RNA was reverse-transcribed using SuperScript First-Strand Synthesis System (Thermo Fisher Scientific). The first-strand cDNA was used as a template. β-actin was used as the normalisation control.
# Primary cortical neurons were derived from embryonic day 14.5 (E14.5) C57BL/6 mice^31. The brains were dissociated from skulls, meninges removed and cortices isolated. Individual cells were dissociated by incubation with trypsin and DNase (Sigma). Cells were plated on poly-d-lysine (Sigma)-coated 24-well plates at a density of 1.5×10^6 cells/ml in Neurobasal medium (Thermo Fisher Scientific) supplemented with B-27 (Thermo Fisher Scientific), N-2 (Thermo Fisher Scientific), and glutamine (0.5 mM, Thermo Fisher Scientific). […]
# cdks 1, 2, 4 and 7 = settings: in vitro; cited from earlier work
# cortical neurons = assay: Neuronal survival assay of amyloid β neurotoxicity; format: cell-based, mouse; settings: co-treatment with amyloid β
# Protocol: The survival assay of amyloid β neurotoxicity was performed as reported previously^33. At various time periods, neurons were lysed in a cell lysis buffer. Under light microscopy, the numbers of intact nuclei indicating living cells was quantified and expressed relative to the number of cells in the control group without amyloid β treatment.
# The brains were dissociated from skulls, meninges removed and cortices isolated. Individual cells were dissociated by incubation with trypsin and DNase (Sigma). Cells were plated on poly-d-lysine (Sigma)-coated 24-well plates at a density of 1.5×10^6 cells/ml in Neurobasal medium (Thermo Fisher Scientific) supplemented with B-27 (Thermo Fisher Scientific), N-2 (Thermo Fisher Scientific), and glutamine (0.5 mM, Thermo Fisher Scientific). Three days after seeding, cultured cells were transfected with siRNAs (60 pmol/24-well) using Lipofactamine 2000 transfection reagent (Thermo Fisher Scientific). Twenty-four hours after transfection, cells were exposed to amyloid β1-42 (5 μM) for the indicated time periods and then processed for subsequent assays. SiRNAs from Santa Cruz are provided as pools consisting of three to five target-specific 19-25 nucleotides siRNAs designed to specifically knockdown the expression of mouse Pax6, c-Myb or E2F1. Silencer Select Pre-designed siRNAs were from Ambion, non-targeting siRNA was used as a negative control. […]
# Pax6 promoter = Pax6 promoter luciferase reporter assay in amyloid β-treated cortical neurons; format: cell-based, mouse; settings: co-treatment with amyloid β
# Protocol: Cortical neurons were transfected with luciferase reporter constructs three days after plating. After amyloid β treatment, luciferase activity of a target gene was determined using the dual-luciferase reporter assay system (Promega) in a microplate luminometer. Luciferase activity was normalised against Renilla activity for the transfection efficiency using a pRL Renilla luciferase control reporter construct. Next, experiments were designed to investigate whether the upregulation of Pax6 and c-Myb is associated with an increase in transcriptional activation of their targets. Cortical neurons were transfected with a P6CON luciferase reporter construct, which contained three standard Pax6 binding sites^39 to measure Pax6 binding; a luciferase construct containing the Pax6 P1 promoter^40 to measure Pax6 promoter activation; or with a luciferase construct containing c-Myb binding sites to measure c-Myb binding. The same luciferase assays were then performed after amyloid β treatment.
# [4] = 5×FAD female mice, 60 mg/kg/day oral 2 months
smiles,measurement,setting,value
CC(=O)c1c(C)c2cnc(Nc3ccc(N4CCNCC4)cn3)nc2n(C2CCCC2)c1=O [palbociclib],expression levels of CDK4 and Cyclin D1,293T-APP cell line,Decreased
same,"side effect (liver, gallbladder and kidney images)",[1],no side effect
same,expression levels of CDK4 and Cyclin D1,293T-Tau cell line,decreased
same,frequency of crossing platform in probe trial,5×FAD mice [2]; [4],significantly increased
same,latency to platform in probe trial,5×FAD mice [2]; [4],significantly improved to the level of the wild type control
same,memory and learning of 5×FAD mice,"5×FAD mice [2]; mouse, in vivo",able to improve memory and learning
same,Aβ deposit in brain tissue,5×FAD mice [3],relative fewer
same,expression of Pax6,5×FAD mice [3],decreased expression
same,expression of cell cycle marker (Cyclin D1),5×FAD mice [3],increased expression
same,expression of E2F-1,5×FAD mice [3]; treatment group compared to controls,relative decreased expression
COc1ccccc1-n1c(/C=C/c2ccc(O)c(O)c2)nc2ccccc2c1=O [ICCB280],induction of C/EBPa,C/EBPa,potent inducer
CN1CC[C@H](c2c(O)cc(O)c3c(=O)cc(-c4ccccc4Cl)oc23)[C@H](O)C1 [flavopiridol],amyloid β-induced upregulation of Pax6 and c-Myb mRNA and protein,Pax6 and c-Myb,significantly blocked
same,"inhibition of all cdks tested (cdks 1, 2, 4 and 7)","cdks 1, 2, 4 and 7",potent and specific in vitro inhibition
same,amyloid β-induced death of cortical neurons,cortical neurons,protected cortical neurons against amyloid β-induced death
same,amyloid β-induced activation of the Pax6 promoter,Pax6 promoter,blocked
